From patent publication US20060045953A1 (priority 2004, published 2006)

Assays:
[1] = target: T1, hT1R2/hT1R3 sweet receptor (Homo sapiens, UniProt Q7RTX0+Q8TE23); assay: In vitro hT1R2/hT1R3 sweet taste receptor activation assay (FLIPR, dose response); format: cell-based; details: read-out: EC50 for activation of a hT1R2/hT1R3 sweet receptor expressed in an HEK293 cell line
T1 construct: expressed in transfected cells; host or cells: HEK293 derivative stably expressing Gα15, clone S-9
T1 sequence (Q8TE23 20-839): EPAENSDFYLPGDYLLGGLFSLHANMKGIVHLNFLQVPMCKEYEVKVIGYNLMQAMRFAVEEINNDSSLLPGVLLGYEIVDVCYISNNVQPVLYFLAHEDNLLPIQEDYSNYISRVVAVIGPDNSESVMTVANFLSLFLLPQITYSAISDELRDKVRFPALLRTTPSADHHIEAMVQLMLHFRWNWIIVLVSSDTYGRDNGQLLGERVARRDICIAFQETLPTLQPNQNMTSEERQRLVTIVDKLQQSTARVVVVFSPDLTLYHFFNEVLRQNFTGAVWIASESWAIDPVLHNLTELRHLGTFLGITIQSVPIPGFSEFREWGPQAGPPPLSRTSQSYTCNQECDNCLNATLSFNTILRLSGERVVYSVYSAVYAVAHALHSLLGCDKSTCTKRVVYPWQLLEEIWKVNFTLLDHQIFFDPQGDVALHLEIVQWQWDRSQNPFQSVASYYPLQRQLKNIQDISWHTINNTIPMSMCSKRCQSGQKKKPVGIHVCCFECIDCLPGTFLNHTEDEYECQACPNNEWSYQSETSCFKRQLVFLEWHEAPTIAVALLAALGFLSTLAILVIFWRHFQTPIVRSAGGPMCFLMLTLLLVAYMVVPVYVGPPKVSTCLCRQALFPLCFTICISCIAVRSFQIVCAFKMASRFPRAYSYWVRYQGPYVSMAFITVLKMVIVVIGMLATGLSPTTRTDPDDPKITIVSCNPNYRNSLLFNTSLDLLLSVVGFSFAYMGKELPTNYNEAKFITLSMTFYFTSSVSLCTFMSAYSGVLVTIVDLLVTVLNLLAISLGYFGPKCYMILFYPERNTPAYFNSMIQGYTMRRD
T1 sequence (Q7RTX0 21-852): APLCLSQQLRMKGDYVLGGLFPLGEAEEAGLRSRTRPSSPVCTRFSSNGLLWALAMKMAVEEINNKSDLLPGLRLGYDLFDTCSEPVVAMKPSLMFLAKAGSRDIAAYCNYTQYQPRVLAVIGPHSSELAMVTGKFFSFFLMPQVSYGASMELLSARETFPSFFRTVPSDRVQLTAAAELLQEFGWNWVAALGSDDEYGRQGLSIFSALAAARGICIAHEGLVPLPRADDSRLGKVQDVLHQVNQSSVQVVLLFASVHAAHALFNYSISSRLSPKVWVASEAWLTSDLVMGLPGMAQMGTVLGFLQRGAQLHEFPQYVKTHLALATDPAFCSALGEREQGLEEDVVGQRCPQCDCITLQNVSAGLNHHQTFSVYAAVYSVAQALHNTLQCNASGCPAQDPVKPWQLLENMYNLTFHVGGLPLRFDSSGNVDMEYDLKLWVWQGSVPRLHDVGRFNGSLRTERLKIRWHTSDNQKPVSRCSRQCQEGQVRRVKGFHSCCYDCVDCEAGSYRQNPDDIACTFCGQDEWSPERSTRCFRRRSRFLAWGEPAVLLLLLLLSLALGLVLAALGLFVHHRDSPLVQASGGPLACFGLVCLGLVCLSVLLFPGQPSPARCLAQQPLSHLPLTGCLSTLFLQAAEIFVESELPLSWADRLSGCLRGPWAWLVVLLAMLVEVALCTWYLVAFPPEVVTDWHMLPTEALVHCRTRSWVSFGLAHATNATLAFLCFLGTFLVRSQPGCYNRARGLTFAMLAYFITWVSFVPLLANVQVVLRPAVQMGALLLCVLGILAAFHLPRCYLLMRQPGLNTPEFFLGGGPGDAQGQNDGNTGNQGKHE
Summary of the method: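 Dose-response at 10 concentrations (60 nM–30 µM, duplicates) measured as Fluo-3AM calcium fluorescence on FLIPR in hT1R2/hT1R3 S-9 cells, in D-PBS at room temperature. Responses scaled to 400 mM D-fructose. EC50s from regression with all curve parameters floating.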

[2] = target: T2, hT1R1/hT1R3 umami receptor (Homo sapiens, UniProt Q7RTX0+Q7RTX1); assay: In vitro hT1R1/hT1R3 umami taste receptor activation assay (FLIPR, dose response); format: cell-based; details: read-out: EC50 for activation of a hT1R1/hT1R3 umami receptor expressed in an HEK293 cell line
T2 construct: expressed in transfected cells; host or cells: HEK293 derivative stably expressing Gα15, clone I-17, expression induced with mifepristone
T2 sequence (Q7RTX1 21-841): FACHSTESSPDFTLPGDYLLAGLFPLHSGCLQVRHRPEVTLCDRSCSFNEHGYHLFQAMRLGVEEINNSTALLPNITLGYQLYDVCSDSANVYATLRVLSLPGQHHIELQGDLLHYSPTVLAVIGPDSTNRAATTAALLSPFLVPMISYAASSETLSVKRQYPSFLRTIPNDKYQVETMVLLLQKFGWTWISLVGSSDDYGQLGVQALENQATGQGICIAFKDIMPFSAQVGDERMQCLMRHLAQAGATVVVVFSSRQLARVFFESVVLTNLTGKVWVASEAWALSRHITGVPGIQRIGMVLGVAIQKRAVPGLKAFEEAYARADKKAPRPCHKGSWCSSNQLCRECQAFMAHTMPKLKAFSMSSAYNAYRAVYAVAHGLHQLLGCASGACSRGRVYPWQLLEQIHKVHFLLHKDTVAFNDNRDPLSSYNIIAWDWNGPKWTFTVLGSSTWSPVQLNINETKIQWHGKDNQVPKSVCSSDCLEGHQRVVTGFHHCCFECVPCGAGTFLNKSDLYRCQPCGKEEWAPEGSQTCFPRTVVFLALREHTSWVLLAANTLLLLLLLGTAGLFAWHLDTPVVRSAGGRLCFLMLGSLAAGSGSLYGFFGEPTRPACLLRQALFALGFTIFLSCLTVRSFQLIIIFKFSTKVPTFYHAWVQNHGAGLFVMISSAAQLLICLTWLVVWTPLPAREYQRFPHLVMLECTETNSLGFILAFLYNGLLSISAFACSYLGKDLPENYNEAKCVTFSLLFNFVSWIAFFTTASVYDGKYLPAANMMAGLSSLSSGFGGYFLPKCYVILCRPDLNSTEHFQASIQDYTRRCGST
T2 sequence (Q7RTX0 21-852): T1 sequence (Q7RTX0 21-852)

Row | EC50 [1] [nM] | melting point [°C] | EC50 [2] [nM] | SMILES
1 | 1170 | 148 to 151 |  | O=C(N[C@@H]1CCCc2c(O)cccc21)c1cccc(Cl)c1O (stereo in doubt) [Example 180, 3-Chloro-2-hydroxy-N-(5-hydroxy-1,2,3,4-tetrahydronaphthalen-1-yl)benzamide]
2 |  | 113 to 114 | 3100 | CCCC(CCC)NC(=O)c1ccc2oc(SC)nc2c1 [Example 44, N-(heptan-4-yl)-2-(methylthio)benzo[d]oxazole-5-carboxamide]
3 |  | 108.5 to 109 | 230 | CCCC(CCC)NC(=O)c1ccc2oc(CCl)nc2c1 [Example 45, Chloromethyl benzooxazol-5-carboxylic acid (1-propyl-butyl)amide]
4 |  | 137 to 137.5 | 450 | CCCC(CCC)NC(=O)c1ccc2nc(CCl)oc2c1 [Example 47, 2-Chloromethyl-benzooxazole-6-carboxylic acid (1-propyl-butyl)-amide]
5 |  | 129 to 131 | 120 | CCCC(CCC)NC(=O)c1ccc(SC)c(C)c1 [Example 51, N-(heptan-4-yl)-3-methyl-4-(methylthio)benzamide]
6 |  | 118 to 119 | 340 | COc1ccccc1CNC(=O)C(=O)NCCc1ccccn1 [Example 122, N-(2-Methoxy-benzyl)-N′-(2-pyridin-2-yl-ethyl)-oxalamide]
7 |  | 122 to 124 | 370 | Cc1ccsc1CNC(=O)C(=O)NCCc1ccccn1 [Example 124, N-(3-Methyl-thiophen-2-ylmethyl)-N′-(2-pyridin-2-yl-ethyl)-oxalamide]
8 |  | 152 to 154 | 410 | Cc1ccc(CNC(=O)C(=O)NCCc2ccccn2)cc1 [Example 125, N-(4-methyl-benzyl)-N′-(2-pyridin-2-yl-ethyl)-oxalamide]
9 |  | 133 to 134 | 110 | COc1ccc(CNC(=O)C(=O)NCCc2ccccn2)c(C)c1 [Example 126, N-(2-Methyl-4-methoxybenzyl)-N′-(2-pyridin-2-yl-ethyl)-oxalamide]
10 |  | 112 to 115 | 1010 | Cc1cc(CNC(=O)C(=O)NCCc2ccccn2)c(C)o1 [Example 130, N-(2,5-Dimethyl-furan-3-ylmethyl)-N′-(2-pyridin-2-yl-ethyl)-oxalamide]
11 |  | 147 to 149 | 2300 | Cc1ccc(CNC(=O)C(=O)NCCc2ccccn2)n1C [Example 131, N-(1,5-Dimethyl-1H-pyrrol-2-ylmethyl)-N′-(2-pyridin-2-yl-ethyl)-oxalamide]
12 |  | 148 to 149 | 70 | Cc1ccc(CNC(=O)C(=O)NCCc2ccccn2)c(C)c1 [Example 133, N-(2,4-dimethylbenzyl)-N′-(2-(pyridin-2-yl)ethyl)oxalamide]
13 |  | 117 to 118 | 100 | CCOc1ccc(CNC(=O)C(=O)NCCc2ccccn2)c(OC)c1 [Example 134, N-(4-ethoxy-2-methoxybenzyl)-N′-(2-(pyridin-2-yl)ethyl)oxalamide]
14 |  | 145 to 147 | 1040 | COc1ccc(CNC(=O)C(=O)NCCc2ccccn2)cc1C [Example 135]
15 |  | 144 to 145 | 1640 | COc1ccc(CNC(=O)C(=O)NCCc2cc(C)ccn2)c(OC)c1 [Example 154, N-(2,4-Dimethoxybenzyl)-N′-(2-(4-methylpyridin-2-yl)ethyl)oxalamide]
16 |  | 124 to 125 | 70 | COc1ccc(CNC(=O)C(=O)NCCc2ccc(C)cn2)c(OC)c1 [Example 155, N-(2,4-Dimethoxybenzyl)-N′-(2-(5-methylpyridin-2-yl)ethyl)oxalamide]
17 |  | 146 to 147 | 4870 | COc1ccc(CNC(=O)C(=O)NCCc2cccs2)c(OC)c1 [Example 156, N-(2,4-Dimethoxybenzyl)-N′-(2-(thiophen-2-yl)ethyl)oxalamide]
18 |  | 135 to 136 | 370 | CCCC(CCC)NC(=O)Nc1ccccc1Cl [Example 158]
19 |  | 172 to 173 | 980 | CCCC(CCC)NC(=O)Nc1ccc(OC)cc1OC [Example 159, 1-(2,4-dimethoxyphenyl)-3-(heptan-4-yl)urea]
20 |  | 163 to 164 | 4100 | CCOc1ccc(NC(=O)NCCc2ccccn2)cc1 [Example 160, 1-(4-ethoxyphenyl)-3-(2-(pyridine-2-yl)ethyl)urea]
21 |  | 72 to 73 | 980 | CC(C)c1ccc(NC(=O)NCCc2ccccn2)cc1 [Example 161, 1-(4-isopropylphenyl)-3-(2-(pyridine-2-yl)ethyl)urea]
22 | 390 | 202 to 204 |  | Cc1c(F)c(F)c(C(=O)NC2CCCCC2C)c(F)c1F (stereo not shown) [Example 162, 2,3,5,6-tetrafluoro-4-methyl-N-(2-methylcyclohexyl)benzamide]
23 | 1850 | 164 to 165 |  | Cc1c(F)c(F)c(C(=O)NC2CCCCCC2)c(F)c1F [Example 164, N-cycloheptyl-2,3,5,6-tetrafluoro-4-methylbenzamide]
24 | 810 | 184 to 187 |  | Cc1c(F)c(F)c(C(=O)NC(C(C)C)C(C)C)c(F)c1F [Example 165, N-(2,4-dimethylpentan-3-yl)-2,3,5,6-tetrafluoro-4-methylbenzamide]
25 | 760 | 57 to 58 |  | Cc1cc(C)c2c(c1)C(NC(=O)c1conc1C)CCC2 (stereo not shown) [Example 166, N-(5,7-dimethyl-1,2,3,4-tetrahydronaphthalen-1-yl)-3-methylisoxazole-4-carboxamide]
26 | 210 | 175 to 176 |  | COc1cccc2c1CCCC2NC(=O)c1cccc(Cl)c1O (stereo not shown) [Example 167, 3-chloro-2-hydroxy-N-(5-methoxy-1,2,3,4-tetrahydronaphthalen-1-yl) benzamide]
